Source: US5223526A, “Pyrazole carboxanilide fungicides and use” (Monsanto Company, priority 1992, dated 1993)

Assays:
Botrytis cinerea [1] = experiment: Eggplant grey mold; type: in vivo; parameters: scale not given here; conditions: inoculated 24 h later, rated after 3-4 days; for Disease Control Rating at 20 ppm: eggplant sprayed with 20 ppm; for Disease Control Rating at 100 ppm: eggplant sprayed with 100 ppm; for Disease Control Rating at 500 ppm: eggplant sprayed with 500 ppm
How it was run: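 Protective test: compound formulations (2:3 acetone:water, 0.5% Tween 20; 500, 100 or 20 ppm) sprayed on 14-18-day-old plants, with spore inoculum (4×10^6 spore/mL) applied a day later. Disease control rated on Botrytis lesions after 3-4 days at 23 °C and 100% humidity.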

Botrytis cinerea [2] = experiment: Vine grey mold (grape berries); type: in vivo; conditions: average of six berries, 7-10 days; for pest or weed control at 50 ppm: grape berries treated with 50 ppm, read-out: % DISEASE CONTROL 50 ppm; for pest or weed control at 200 ppm: grape berries treated with 200 ppm, read-out: % DISEASE CONTROL 200 ppm
How it was run: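 Preventive berry test: compound at 50 or 200 ppm (acetone/water, 0.05% Tween 20) applied one day before inoculation with 10^6 spores/mL Botrytis conidia. After 7-10 days at 20 °C under 12 h light, infected surface area rated; disease control expressed as percent reduction from control mean; repeated-test values averaged.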

succinate dehydrogenase = target: T1, succinate dehydrogenase (Botrytis cinerea, UniProt A0A384J5E4+A0A384J8V8+A0A384JHJ5); experiment: Enzyme inhibition: succinate dehydrogenase activity in Botrytis cinerea mitochondria (DCPIP reduction); type: biochemical; conditions: concentration required to inhibit the rate of DCPIP reduction by 50%; Botrytis cinerea isolate Nick mitochondria; read-out: I50 (μM conc.)
T1 construct: succinate-DCPIP reductase assay with KCN
T1 sequence (A0A384J5E4 1-300): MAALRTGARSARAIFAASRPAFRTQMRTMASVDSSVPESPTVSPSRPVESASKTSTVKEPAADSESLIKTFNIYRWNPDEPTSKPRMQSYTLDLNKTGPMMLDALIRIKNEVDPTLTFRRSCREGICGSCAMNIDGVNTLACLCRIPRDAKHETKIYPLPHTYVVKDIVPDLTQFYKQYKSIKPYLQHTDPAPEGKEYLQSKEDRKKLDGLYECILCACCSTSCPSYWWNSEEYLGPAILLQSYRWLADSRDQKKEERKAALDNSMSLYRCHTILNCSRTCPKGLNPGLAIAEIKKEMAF
T1 sequence (A0A384J8V8 1-189): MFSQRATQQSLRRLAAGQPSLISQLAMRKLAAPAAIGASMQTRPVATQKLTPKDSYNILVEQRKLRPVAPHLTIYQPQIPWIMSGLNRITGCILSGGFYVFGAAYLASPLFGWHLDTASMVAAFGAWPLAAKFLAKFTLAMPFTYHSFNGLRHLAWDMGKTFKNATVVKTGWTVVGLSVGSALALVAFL
T1 sequence (A0A384JHJ5 1-192): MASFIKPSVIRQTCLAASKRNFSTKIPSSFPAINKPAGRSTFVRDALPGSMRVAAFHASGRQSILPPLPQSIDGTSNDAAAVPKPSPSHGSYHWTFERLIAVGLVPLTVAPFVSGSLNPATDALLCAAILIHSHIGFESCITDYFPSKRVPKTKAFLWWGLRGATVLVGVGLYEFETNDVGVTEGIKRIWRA
T1 sequence (A0A384K456 1-647 partner): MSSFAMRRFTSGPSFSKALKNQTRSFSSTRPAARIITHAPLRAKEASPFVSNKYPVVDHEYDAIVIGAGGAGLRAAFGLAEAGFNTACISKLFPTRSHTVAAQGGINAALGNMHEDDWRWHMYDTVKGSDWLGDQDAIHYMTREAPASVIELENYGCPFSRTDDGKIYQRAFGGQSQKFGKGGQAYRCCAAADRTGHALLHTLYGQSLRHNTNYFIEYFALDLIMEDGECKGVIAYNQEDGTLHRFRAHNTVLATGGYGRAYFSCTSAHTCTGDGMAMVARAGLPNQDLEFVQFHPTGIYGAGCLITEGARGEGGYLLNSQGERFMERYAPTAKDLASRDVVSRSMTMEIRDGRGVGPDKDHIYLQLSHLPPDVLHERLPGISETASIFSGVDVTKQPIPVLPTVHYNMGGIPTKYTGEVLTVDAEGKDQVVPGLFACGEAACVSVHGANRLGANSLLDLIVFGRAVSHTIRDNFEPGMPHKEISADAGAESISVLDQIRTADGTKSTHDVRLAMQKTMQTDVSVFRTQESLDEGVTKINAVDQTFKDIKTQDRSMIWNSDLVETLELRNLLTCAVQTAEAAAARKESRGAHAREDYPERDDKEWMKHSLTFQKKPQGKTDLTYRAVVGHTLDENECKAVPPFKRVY
How it was run: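 DCPIP (45 μM) reduction at 600 nm tracked with 17 mM succinate, 1 mM KCN and 50 mM potassium phosphate, pH 7.2. Compounds were added in acetone (final 1% v/v), and Botrytis cinerea isolate Nick mitochondrial fraction initiated the reaction. Rates minus endogenous activity gave percentage inhibition, plotted semilog against concentration to derive I50 (μM).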

Rhizoctonia solani = experiment: Rice sheath blight; type: in vivo; parameters: scale not given here; conditions: inoculated two days later, rated after 7 days, average of five plants; for Disease Control Rating at 0.5 mg/mL: foliage and soil sprayed with 0.5 mg/mL; for Disease Control Rating at 0.02 mg/mL: foliage and soil sprayed with 0.02 mg/mL; for Disease Control Rating at 0.1 mg/mL: foliage and soil sprayed with 0.1 mg/mL
How it was run: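 Preventive test: R. solani inoculum on rice grain was applied at the plant base two days after spraying foliage and soil with Compound A (0.5, 0.1 or 0.02 mg/mL, water/acetone/Tween 20). Plants aged 11–15 days stood in flood trays; after 7 days at 25 °C and high humidity, disease control was rated against untreated plants, five plants averaged.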

| SMILES | Disease Control Rating at 20 ppm (Botrytis cinerea [1]) | Disease Control Rating at 100 ppm (Botrytis cinerea [1]) | Disease Control Rating at 500 ppm (Botrytis cinerea [1]) | pest or weed control at 50 ppm (Botrytis cinerea [2]) [%] | pest or weed control at 200 ppm (Botrytis cinerea [2]) [%] | IC50 (succinate dehydrogenase) [µM] | Disease Control Rating at 0.5 mg/mL (Rhizoctonia solani) | Disease Control Rating at 0.02 mg/mL (Rhizoctonia solani) | Disease Control Rating at 0.1 mg/mL (Rhizoctonia solani) |
| --- | --- | --- | --- | --- | --- | --- | --- | --- | --- |
| CCC1CCCC(C)=C1c1ccccc1NC(=O)c1cn(C)nc1C(F)(F)F (stereo not drawn) [Example 138, 1H-pyrazole-4-carboxamide, N-[2-(6-ethyl-2-methyl-1-cyclohexen-1-yl)phenyl]-1-methyl-3-(trifluoromethyl)-] | 0 | 0 | 0 | 0 | 4 | 0.13 | 2 | – | – |
| Cn1cc(C(=O)Nc2ccccc2C2=CCCCCC2)c(C(F)F)n1 [Example 111, 1H-pyrazole-4-carboxamide, N-[2-(1-cyclohepten-1-yl)phenyl]-3-(difluoromethyl)-1-methyl-] | 1 | 1 | 1 | 99 | 100 | 0.0038 | 3 | 3 | 3 |
| Cn1cc(C(=O)Nc2ccc(F)cc2C2CCCCC2)c(C(F)(F)F)n1 [Example 12, 1H-pyrazole-4 carboxamide, N-(2-cyclohexyl-4-fluorophenyl)-1-methyl-3-(trifluoromethyl)-] | 1 | 1 | 3 | 58 | 59 | 0.0089 | 2 | – | – |
| Cn1cc(C(=O)Nc2ccccc2C2CCCCCC2)c(C(F)(F)Cl)n1 [Example 92, 1H-pyrazole-4-carboxamide, 3-(chlorodifluoromethyl)-N-(2-cycloheptylphenyl)-1-methyl-] | – | – | 0 | 36 | 30 | 0.062 | 2 | 0 | 1 |
| CC1=C(c2ccccc2NC(=O)c2cn(C)nc2C(F)(F)F)CCC1 [Example 137, 1H-pyrazole-4-carboxamide, 1-methyl-N-[2-(2-methyl-1-cyclopenten-1-yl)phenyl]-3-(trifluoromethyl)-] | 1 | 3 | 3 | 83 | 100 | 0.02 | 3 | 1 | 2 |
| Cn1nc(C(F)(F)F)c(C(=O)Nc2ccccc2C2CCCCCC2)c1Cl [Example 89, 1H-pyrazole-4-carboxamide, 5-chloro-N-(2-cycloheptylphenyl)-1-methyl-3-(trifluoromethyl)-] | – | – | 0 | 24 | 13 | 0.021 | 0 | – | – |
| Cn1cc(C(=O)Nc2cc(Cl)ccc2C2CCCCC2)c(C(F)F)n1 [Example 93, 1H-pyrazole-4-carboxamide, N-(5-chloro-2-cyclohexylphenyl)-3-(difluoromethyl)-1-methyl-] | 0 | 0 | 0 | 0 | 15 | 0.044 | 0 | – | – |
| Cn1cc(C(=O)Nc2cccc(F)c2C2CCCCC2)c(C(F)F)n1 [Example 17, 1H-pyrazole-4-carboxamide, N-(2-cyclohexyl-3-fluorophenyl)-3-(difluoromethyl)-1-methyl-] | 1 | 2 | 2 | 90 | 95 | 0.0063 | 3 | – | – |
| Cn1cc(C(=O)Nc2ccccc2O[C@H]2CC[C@@H](C)CC2)c(C(F)(F)F)n1 [Example 72, 1H-pyrazole-4-carboxamide, 1-methyl-N-[2-[(4-methylcyclohexyl)oxy]phenyl]-3-(trifluoromethyl)-, cis-] | – | – | 0 | 0 | 0 | 0.031 | 0 | – | – |
| O=C(Nc1ccccc1C1CCCCC1)c1cn(C(F)F)nc1C(F)F [Example 61, 1H-pyrazole-4-carboxamide, N-(2-cyclohexylphenyl)-1,3-bis(difluoromethyl)-] | – | – | 1 | 0 | 0 | 0.19 | 0 | – | – |
| Cn1cc(C(=S)Nc2ccccc2[C@@H]2C[C@H]3CC[C@@H]2C3)c(C(F)F)n1 (relative stereo) [Example 102, 1H-pyrazole-4-carbothioamide, N-(2-bicyclo[2.2.1]hept-2-ylphenyl)-3-(difluoromethyl)-1-methyl-, exo-] | – | – | 1 | 88 | 83 | 16 | 3 | 3 | 3 |
| Cn1cc(C(=O)Nc2ccccc2[C@@H]2C[C@H]3CC[C@@H]2C3)c(C(F)(F)Cl)n1 (relative stereo) [Example 91, 1H-pyrazole-4-carboxamide, N-[2-bicyclo[2.2.1]hept-2-ylphenyl]-3-(chlorodifluoromethyl)-1-methyl-, exo-] | – | – | 0 | 0 | 14 | 0.078 | 0 | – | – |
| Cc1ccc(NC(=O)c2cn(C)nc2C(F)(F)F)c(C2CCCCC2)c1 [Example 29, 1H-pyrazole-4-carboxamide, N-(2-cyclohexyl-4-methylphenyl)-1-methyl-3-(trifluoromethyl)-] | – | – | 0 | 0 | 54 | 0.036 | 0 | – | – |
| Cn1cc(C(=O)Nc2ccccc2C2=CC(C)(C)CC(C)(C)C2)c(C(F)(F)F)n1 [Example 123, 1H-pyrazole-4-carboxamide, 1-methyl-N-[2-(3,3,5,5-tetramethyl-1-cyclohexen-1-yl)phenyl]-3-(trifluoromethyl)-] | 0 | 0 | 0 | 14 | 36 | 0.023 | 0 | – | – |
| Cc1nn(C)c(Cl)c1C(=O)Nc1ccccc1[C@@H]1C[C@H]2CC[C@@H]1C2 (relative stereo) [Example 106, 1H-pyrazole-4-carboxamide, N-(2-bicyclo[2.2.1]hept-2-ylphenyl)-5-chloro-1,3-dimethyl-, exo-] | – | – | 0 | 9 | 3 | 0.094 | 3 | 2 | 3 |
